Test results as given in the NIST ThermoML archive (doi:10.1021/je034162x).

Settings: 101.33 kPa, Liquid, Hot wire method

CC1CCCC1 [methylcyclopentane]
Settings | thermal conductivity [W/m/K] | thermal diffusivity [m2/s]
258.71 K | 0.1273 | –
258.96 K | 0.1271 | –
259.11 K | 0.127 | –
259.52 K | – | 9.4e-08
260.16 K | – | 9.37e-08
260.57 K | – | 9.34e-08
277 K | 0.1212 | –
277.24 K | 0.1211 | –
277.41 K | 0.121 | –
277.86 K | – | 8.8e-08
278.49 K | – | 8.85e-08
278.91 K | – | 8.82e-08
294.9 K | 0.1155 | –
295.15 K | 0.1154 | –
295.32 K | 0.1153 | –
295.76 K | – | 8.24e-08
296.37 K | – | 8.25e-08
296.8 K | – | 8.24e-08
312.57 K | 0.1101 | –
312.82 K | 0.11 | –
312.99 K | 0.1099 | –
313.44 K | – | 7.77e-08
314.04 K | – | 7.73e-08
314.46 K | – | 7.71e-08

C=CCCCCCC [oct-1-ene]
Settings | thermal conductivity [W/m/K] | thermal diffusivity [m2/s]
259.69 K | 0.1354 | –
259.9 K | 0.1353 | –
260.06 K | 0.1353 | –
260.46 K | – | 9.04e-08
261.02 K | – | 9.07e-08
261.42 K | – | 9.09e-08
279.34 K | 0.1294 | –
279.57 K | 0.1294 | –
279.72 K | 0.129 | –
280.08 K | – | 8.39e-08
280.66 K | – | 8.48e-08
281.06 K | – | 8.49e-08
296.88 K | 0.124 | –
297.14 K | 0.124 | –
297.28 K | 0.124 | –
297.65 K | – | 7.98e-08
298.28 K | – | 8e-08
298.61 K | – | 8.02e-08
315.82 K | 0.1185 | –
316.07 K | 0.1186 | –
316.24 K | 0.1186 | –
316.57 K | – | 7.49e-08
317.19 K | – | 7.58e-08
317.61 K | – | 7.61e-08
326.44 K | 0.1155 | –
326.7 K | 0.1156 | –
326.87 K | 0.1156 | –
327.18 K | – | 7.24e-08
327.82 K | – | 7.35e-08
328.26 K | – | 7.38e-08

CCCc1ccccc1 [propylbenzene]
Settings | thermal conductivity [W/m/K] | thermal diffusivity [m2/s]
261.18 K | 0.1358 | –
261.4 K | 0.1357 | –
261.57 K | 0.1356 | –
262.04 K | – | 9.04e-08
262.63 K | – | 9.06e-08
263.06 K | – | 9.06e-08
275.09 K | 0.133 | –
275.33 K | 0.1328 | –
275.5 K | 0.1328 | –
275.98 K | – | 8.84e-08
276.61 K | – | 8.87e-08
277.03 K | – | 8.85e-08
294.17 K | 0.1286 | –
294.42 K | 0.1285 | –
294.6 K | 0.1285 | –
295.08 K | – | 8.49e-08
295.74 K | – | 8.53e-08
296.19 K | – | 8.52e-08
312.54 K | 0.1247 | –
312.79 K | 0.1246 | –
312.97 K | 0.1245 | –
313.45 K | – | 8.14e-08
314.1 K | – | 8.16e-08
314.56 K | – | 8.15e-08
329.54 K | 0.1208 | –
329.79 K | 0.1207 | –
329.98 K | 0.1207 | –
330.45 K | – | 7.8e-08
331.09 K | – | 7.79e-08
331.57 K | – | 7.81e-08

[2H]c1c([2H])c([2H])c(C([2H])([2H])[2H])c([2H])c1[2H] [toluene-d8]
Settings | thermal conductivity [W/m/K] | thermal diffusivity [m2/s]
259.69 K | 0.1349 | –
259.91 K | 0.1348 | –
260.06 K | 0.1348 | –
260.47 K | – | 8.33e-08
261.03 K | – | 8.36e-08
261.42 K | – | 8.36e-08
279.35 K | 0.1298 | –
279.57 K | 0.1297 | –
279.73 K | 0.1296 | –
280.14 K | – | 7.9e-08
280.69 K | – | 7.9e-08
281.08 K | – | 7.88e-08
296.9 K | 0.1251 | –
297.13 K | 0.1249 | –
297.28 K | 0.1249 | –
297.69 K | – | 7.52e-08
298.25 K | – | 7.51e-08
298.64 K | – | 7.51e-08
315.84 K | 0.12 | –
316.08 K | 0.1199 | –
316.24 K | 0.1198 | –
316.65 K | – | 7.15e-08
317.21 K | – | 7.13e-08
317.61 K | – | 7.11e-08
326.47 K | 0.1173 | –
326.7 K | 0.1172 | –
326.87 K | 0.117 | –
327.28 K | – | 6.95e-08
327.85 K | – | 6.93e-08
328.25 K | – | 6.9e-08
